Measurements as given in article PMC9072250 (Acta Pharmaceutica Sinica. B, 2021).
Counter-ions that a name gives are not always drawn.

Experiments:
[1] = tested on: monocrotaline-induced PAH rat model; assay: Monocrotaline-induced PAH rat model; assay type: in vivo, Wister rats; conditions: PAH rats, 10.0 mg/kg (po) daily for 3 weeks, positive control
[2] = tested on: PDE6A; conditions: PDE6A versus PDE5A1; cited from earlier work

CCCc1nn(C)c2c(=O)[nH]c(-c3cc(S(=O)(=O)N4CCN(C)CC4)ccc3OCC)nc12 [sildenafil citrate]
mean pulmonary artery pressure (mPAP) [1]: decreased significantly
right ventricle hypertrophy index (RVHI%) [1]: decreased significantly
wall thickness percentage (WT%) [1]: decreased significantly

CCCc1nn(C)c2c(=O)[nH]c(-c3cc(S(=O)(=O)N4CCN(C)CC4)ccc3OCC)nc12 [sildenafil]
IC50 potency against PDE6A relative to PDE5A1 [2]: 5 fold
